Entries after “also recorded” stand apart in the source; their conditions may differ. Like-named read-outs stand apart in the source and are kept apart here.
Assays:
[1] = system: Bovine coronavirus (KWD20); experiment: microbe, parasite or virus in culture; details: Betacoronavirus 1, 18 h
[2] = MTT half-maximal cytotoxic concentration (CC50); details: pig
Experimental: (§1) To determine the half-maximal cytotoxic concentration (CC50) of the lipase inhibitors atglistatin and CAY10499, Vero E6, A549, HRT-18G, MA104, MARC-145, and LLC-PK cells were prepared in monolayers in 96-well plates.
(§2) The cells were treated with the drugs for 24 hours, and the culture media was removed before addition of 200 μL of 3-(4,5-dimethylthiazol-2-yl)-2,5-diphenyl tetrazolium bromide (MTT) solution to each well. The plates were then incubated for 4 hours in a 5% CO2 incubator at 36° C. Subsequently, 150 μL of DMSO solution was added to each well and incubated at 20° C. The optical density (OD) was measured at 570 nm wavelength using an enzyme-linked immunosorbent assay (ELISA) reader.

[3] = system: Porcine respiratory reproductive syndrome virus (LMY); experiment: microbe, parasite or virus in culture; details: Porcine reproductive and respiratory syndrome virus, MARC145, in Sus scrofa, 18 h
[4] = CC50 range over the cell line panel
Experimental: as §1, §2

[5] = system: Species A Rotavirus (NCDV); experiment: microbe, parasite or virus in culture; details: MA104, in Bos taurus, 12 h
[6] = system: Influenza A virus (H1N1) (PR8); experiment: microbe, parasite or virus in culture; details: H1N1|PR8, A549, 12 h, drug added after 12 hours, additional 12 hours
[7] = MTT half-maximal cytotoxic concentration (CC50); details: rhesus monkey
Experimental: as §1, §2

[8] = system: influenza A virus PR8 strain; type: cell-based
[9] = system: spike (S) protein of SARS-COV-2; experiment: Palmitoylation assay in SARS-CoV-2-infected Vero E6 cells; type: cell-based; details: Vero E6, 20 μM; vs vehicle
Experimental: CO2 incubator. The cells were then washed with phosphate-buffered saline, and DMEM supplemented with 1 μg/ml TPCK-treated trypsin, 100 u/ml penicillin, and 100 ug/ml streptomycin was added. Afterward, the cells were incubated in a 37° C. CO2 incubator for 18 hours. […] Following an additional 18-hour incubation, the cells were washed with phosphate-buffered saline, treated with trypsin, harvested, and centrifuged. The palmitoylation assay (Badrilla, Leeds, UK) was then conducted on these cells according to the manufacturer's instructions.
The cell pellet was washed with phosphate-buffered saline and then mixed with Buffer A containing Thiol Blocking Reagent. The mixture was incubated at 40° C. for 4 hours with continuous stirring. Subsequently, 70% acetone was added to precipitate the proteins, and the supernatant was discarded. The acetone addition process was repeated five times. The pellet was thoroughly washed, followed by elution in a binding buffer at 40° C. for 3 hours. A portion of the eluted supernatant was mixed with Laemmli Sample Buffer and used as an input control for total protein, while the remainder underwent a purification process for palmitoylated proteins.
Initially, the total protein supernatant was mixed with CAPTUREome™ Capture Resin and Thio Cleavage Reagent, and the mixture was incubated on a rotary mixer at 20° C. for 3 hours. […]

[10] = system: Porcine epidemic diarrhea coronavirus (QIAP1401); experiment: organism not typed; details: Vero C1008, 18 h
SARS-COV-2 strain KCDC03 = type: cell-based
[11] = system: influenza A virus hemagglutinin (H) and M2 proteins; type: cell-based; details: A549, 20 μM; vs vehicle
SARS-COV-2 KCDC03 strain = experiment: SARS-CoV-2-infected hamsters treated with lipase inhibitor; details: for alleviation (reduction) of pneumonia severity: 80 mg kg^−1 day^−1 intraperitoneally for 4.5 days; for pneumonia severity: 20, 40, 80 mg kg^−1 day^−1, dose-dependent; for production of free fatty acids and glycerol in lung tissue: 20 to 80 mg kg^−1 day^−1; for number of viral genes (viral genome copy number) in lung tissue / progeny viruses in lung tissue: fifth day post-infection; for weight loss: five days observation
Vero E6 cells [12] = system: Vero E6 cells
Experimental: as §1, §2

[13] = system: influenza A virus PR8 strain; type: cell-based; details: influenza A virus M2 protein, A549; 1, 10, 20 μM
[14] = system: bovine species A rotavirus NCDV strain; experiment: Viral antigen expression (Western blot, immunofluorescence) in infected MA104 cells; type: cell-based; details: rotavirus VP6 protein, 1, 10, 20 μM
[15] = MTT half-maximal cytotoxic concentration (CC50); details: African green monkey
Experimental: as §1, §2

SARS COV-2 KCDC03 strain = type: cell-based; details: SARS-CoV-2 spike protein, Vero E6; 1, 10, 20 μM
[16] = system: porcine epidemic diarrhea coronavirus QIAP1401 strain; experiment: Viral antigen expression (Western blot, immunofluorescence) in infected Vero E6 cells; type: cell-based; details: PEDV nucleocapsid protein, 1, 10, 20 μM
Experimental: The virus was incubated at 37° C. for 18 hours, after which the medium was changed with a medium containing DABPU-EM or DABPU-DE at a final concentration of 1 μM, […], or 20 μM. Following an additional 18 hours of incubation, the Vero E6 cells in 6-well plates were washed with phosphate-buffered saline, collected by scaping, and centrifuged. The cell pellet thus obtained was subjected to Western blot analysis. The intensity of the porcine epidemic diarrhea coronavirus nucleocapsid protein detected was assessed by comparison with the relative positive signals of the internal control beta-actin using the ImageJ software. Separately, the Vero E6 cells in 8-well chambers were washed with phosphate-buffered saline, fixed with 4% paraformaldehyde, and then subjected to immunofluorescence staining for porcine epidemic diarrhea coronavirus nucleocapsid protein in the same manner as described in the foregoing.

[17] = system: bovine coronavirus KWD20 strain; type: cell-based; details: bovine coronavirus spike protein, HRT-18G; 1, 10, 20 μM
[18] = system: porcine sapovirus Cowden strain; experiment: Viral antigen expression (Western blot, immunofluorescence) in infected LLC-PK cells; type: cell-based; details: porcine sapovirus VPg protein, 1, 10, 20 μM
Vero E6 cells [19] = experiment: MTT half-maximal cytotoxic concentration (CC50); details: Vero E6; drugs for 24 hours, MTT
Experimental: as §1, §2

MA104 cells = experiment: MTT half-maximal cytotoxic concentration (CC50); details: MA104; drugs for 24 hours, MTT
Experimental: as §1, §2

[20] = listed as atglistatin (DABPU-DM)
[21] = vs untreated virus-inoculated group

Compound | IC50 [1] | CC50 at 24 h [2] | IC50 [3] | IC50 [5] | IC50 [6] | CC50 at 24 h [7] | levels of free fatty acids and glycerol in the cytoplasm [8] | number of lipid droplets [8] | production of virus M2 protein [8] | progeny virus titer [8] | viral genome copy [8] | palmitoylation of the spike (S) protein of SARS-COV-2 [9] | IC50 [10] | free fatty acids and glycerol in the cytoplasm (SARS-COV-2 strain KCDC03) | number of lipid droplets (SARS-COV-2 strain KCDC03) | progeny virus count (SARS-COV-2 strain KCDC03) | viral gene count (SARS-COV-2 strain KCDC03) | virus spike protein synthesis (SARS-COV-2 strain KCDC03) | palmitoylation of both hemagglutinin (H) and M2 proteins [11] | alleviation (reduction) of pneumonia severity (SARS-COV-2 KCDC03 strain) | other results
CN(C)C(=O)Nc1cccc(-c2ccc(N(C)C)cc2)c1 [Atglistatin, 3-(4′-(dimethylamino)-(1,1′-biphenyl)-3-yl)-1,1-dimethylurea] | 1.2 µM | 224 µM | 2.53 µM | 6.7 µM | 0.82 µM | 214 µM | significant decrease | did not significantly decrease | significant decrease | significant decrease | significant decrease | significantly reduced | 1.96 µM | significant decrease | did not decrease significantly | significant decrease | significant decrease | significant decrease | significantly decreased | 73% | CC50 at 24 h [4]: 182 to 269 µM; alleviation (reduction) of pneumonia severity (SARS-COV-2 KCDC03 strain; [20]): 70%; pneumonia severity (SARS-COV-2 KCDC03 strain): alleviating pneumonia severity in a dose-dependent manner; production of free fatty acids and glycerol in lung tissue (SARS-COV-2 KCDC03 strain): significantly reducing; production of free fatty acids and glycerol in lung tissue (SARS-COV-2 KCDC03 strain; [20]): decreasing; number of viral genes (viral genome copy number) in lung tissue (SARS-COV-2 KCDC03 strain): significant decrease; progeny viruses in lung tissue (SARS-COV-2 KCDC03 strain): significant decrease; number of viral genes (viral genome copy number) in lung tissue (SARS-COV-2 KCDC03 strain; [20]): significantly reduced; progeny viruses in lung tissue (SARS-COV-2 KCDC03 strain; [20]): significantly reduced; weight loss (SARS-COV-2 KCDC03 strain): ceasing weight loss; weight loss (SARS-COV-2 KCDC03 strain; [20]): blocking weight loss; level of viral antigens in the alveolar epithelial cells (SARS-COV-2 KCDC03 strain; [21]): significant decrease; lung lesions, including interstitial pneumonia, and number of virus-positive cells (SARS-COV-2 KCDC03 strain; [21]): alleviating and reducing; number of lipid droplets in alveolar epithelial cells (SARS-COV-2 KCDC03 strain; [21]): did not decrease significantly
COc1nn(-c2ccc(NC(=O)OCc3ccccc3)c(C)c2)c(=O)o1 [CAY10499] | – | – | – | – | – | – | significant decrease | did not significantly decrease | significant decrease | significant decrease | significant decrease | significantly reduced | – | significant decrease | did not decrease significantly | significant decrease | significant decrease | significant decrease | significantly decreased | – | CC50 (Vero E6 cells [12]): 102 µM
CCN(C)C(=O)Nc1cccc(-c2ccc(N(C)C)cc2)c1 [DABPU-EM, 3-(4′-(dimethylamino)-(1,1′-biphenyl)-3-yl)-1-ethyl-1-methylurea] | 3.44 µM | 231 µM | 2.7 µM | 7.08 µM | 1.63 µM | 223 µM | – | – | – | – | – | – | 1.94 µM | – | – | – | – | – | – | – | expression levels of the viral antigen in infected cells [13]: inhibitory activity; expression levels of the viral antigen in infected cells [14]: inhibitory activity; CC50 at 24 h [15]: 210 µM; expression levels of the viral antigen in infected cells (SARS COV-2 KCDC03 strain): inhibitory activity; expression levels of the viral antigen in infected cells [16]: inhibitory activity; CC50 at 24 h ([4]; human, African green monkey, dog, pig): 186 to 231 µM; expression levels of the viral antigen in infected cells [17]: inhibitory activity; expression levels of the viral antigen in infected cells [18]: inhibitory activity
CCN(CC)C(=O)Nc1cccc(-c2ccc(N(C)C)cc2)c1 [DABPU-DE] | – | – | – | – | – | – | – | – | – | – | – | – | – | – | – | – | – | – | – | 75% | expression levels of the viral antigen in infected cells [13]: higher inhibitory effects of DABPU-DE than DABPU-EM; expression levels of the viral antigen in infected cells [14]: higher inhibitory effects of DABPU-DE than DABPU-EM; CC50 (Vero E6 cells [19]): 222 µM; expression levels of the viral antigen in infected cells (SARS COV-2 KCDC03 strain): higher inhibitory effects of DABPU-DE than DABPU-EM; expression levels of the viral antigen in infected cells [16]: higher inhibitory effects of DABPU-DE than DABPU-EM; CC50 (MA104 cells): 209 µM; expression levels of the viral antigen in infected cells [17]: higher inhibitory effects of DABPU-DE than DABPU-EM; expression levels of the viral antigen in infected cells [18]: higher inhibitory effects of DABPU-DE than DABPU-EM; pneumonia severity (SARS-COV-2 KCDC03 strain): alleviating pneumonia severity in a dose-dependent manner; production of free fatty acids and glycerol in lung tissue (SARS-COV-2 KCDC03 strain): decreasing; also recorded: lower levels; number of viral genes (viral genome copy number) in lung tissue (SARS-COV-2 KCDC03 strain): significantly reduced; progeny viruses in lung tissue (SARS-COV-2 KCDC03 strain): significantly reduced; weight loss (SARS-COV-2 KCDC03 strain): blocking weight loss

Reference: patent publication US20240285557A1, “PHARMACEUTICAL COMPOSITION COMPRISING LIPASE INHIBITOR FOR TREATMENT OR TREATMENT OF RNA VIRAL INFECTIONS” (priority 2021, published 2024)
